In this test the test system is männliche Ratten. Put plainly: Diuretic and saluretic effect in fasted male rats: urine and electrolyte excretion over 6 hours in metabolism cages. To be noted: 100 mg/kg p.o. in 10 ml/kg Tylose-Suspension, excretion over 6 Stunden, fasted male Wistar rats; for K^+ / Na^+: flame photometer. The format is in vivo, Ratten (SPF. On the procedure:
Die pharmakologische Wirkung der erfindungsgemäßen Verbindungen wurden nach folgender Testmethode ermittelt: Nüchterne männliche Ratten im Gewicht von 150 bis 250 g (SPF, Wistar, je n=4 Paare) werden mit 10 ml/kg p.o. Tylose-Suspension (0,5 X) als Kontrollen bzw. mit 100 mg/kg p.o. Prüfsubstanz in 10 ml/kg p.o. Tylose-Suspension mittels Schlundsonde behandelt. Die Tiere werden in Stoffwechselkäfige gebracht und die Harn- und Elektrolytauscheidung über 6 Stunden bestimmt (Na^4 und K^4 Bestimmung: IL-Flammenphotometer).

For `CCN(CC)C(=O)/C=C/c1c(-c2ccccc2)nc2ccc(N3CCN(C)CC3)nn12` [Beispiel 35], the Harn came out at 21 mL/kg, the “K^+” value was 800 µmol/kg and the “Na^+” value came to 3100 µmol/kg.

With `CN1CCN(c2ccc3nc(-c4ccccc4)c(/C=C/C(=O)N4CCCCC4)n3n2)CC1` [Beispiel 33], the Harn was 26 mL/kg, the “K^+” value was found to be 450 µmol/kg and the “Na^+” value worked out at 3400 µmol/kg.

As to `Cc1ccc2nc(-c3ccccc3)c(/C=C/C(=O)N3CCCCC3)n2n1` [Beispiel 14], the Harn was 25 mL/kg, the “K^+” value turned out to be 900 µmol/kg and the “Na^+” value was determined as 2900 µmol/kg.
